The data set deals with Shiga toxins.

This note sets out measurements from US9974806B2 (priority 2012, dated 2018).

Take colloidal bismuth hydroxide gel [CBHG]: the “cytotoxic activity on Vero cells” value was “significant decrease”.
